Laboratory results from PMC8371461 (Frontiers in Pharmacology, 2021).

Legend:
Assay in all cases: kinome scan
Type in all cases: binding
[1] = target: T1, CLK2 (Homo sapiens, UniProt P49760); details: 10 µM
T1 construct: purchased DiscoverX (KINOMEscan)

[2] = target: T2, CDK7 (Homo sapiens, UniProt P50613); details: 10 µM
T2 construct: purchased DiscoverX (KINOMEscan)

[3] = target: T3, FLT3(K663Q) (Homo sapiens, UniProt P36888, K663Q)
T3 construct: purchased DiscoverX (KINOMEscan)

[4] = target: T4, NEK2 (Homo sapiens, UniProt P51955); details: 10 µM
T4 construct: purchased DiscoverX (KINOMEscan)

[5] = target: T5, SIK (Homo sapiens, UniProt P57059); details: 10 µM
T5 construct: purchased DiscoverX (KINOMEscan)

[6] = target: T6, FLT4 (Homo sapiens, UniProt P35916); details: 10 µM
T6 construct: purchased DiscoverX (KINOMEscan)

[7] = target: T7, SRC (Homo sapiens, UniProt P12931); details: 10 µM
T7 construct: purchased DiscoverX (KINOMEscan)

[8] = target: T8, TYK2(JH2domain-pseudokinase) (Homo sapiens, UniProt P29597)
T8 construct: TYK2(JH2domain-pseudokinase); purchased DiscoverX (KINOMEscan)

[9] = target: T9, ADCK4 (Homo sapiens, UniProt Q96D53); details: 10 µM
T9 construct: purchased DiscoverX (KINOMEscan)

[10] = target: T10, CAMKK2 (Homo sapiens, UniProt Q96RR4); details: 10 µM
T10 construct: purchased DiscoverX (KINOMEscan)

[11] = target: T11, MINK (Homo sapiens, UniProt Q8N4C8); details: 10 µM
T11 construct: purchased DiscoverX (KINOMEscan)

[12] = target: T12, BRSK1 (Homo sapiens, UniProt Q8TDC3); details: 10 µM
T12 construct: purchased DiscoverX (KINOMEscan)

[13] = target: T13, MAPKAPK5 (Homo sapiens, UniProt Q8IW41); details: 10 µM
T13 construct: purchased DiscoverX (KINOMEscan)

[14] = target: T14, EPHA5 (Homo sapiens, UniProt P54756); details: 10 µM
T14 construct: purchased DiscoverX (KINOMEscan)

[15] = target: T15, MET(M1250T) (Homo sapiens, UniProt P08581, M1250T); details: 10 µM
T15 construct: purchased DiscoverX (KINOMEscan)

[16] = target: T16, PIK3CA(Q546K) (Homo sapiens, UniProt P42336, Q546K); details: 10 µM
T16 construct: purchased DiscoverX (KINOMEscan)

[17] = target: T17, RIOK1 (Homo sapiens, UniProt Q9BRS2); details: 10 µM
T17 construct: purchased DiscoverX (KINOMEscan)

[18] = target: T18, BMPR2 (Homo sapiens, UniProt Q13873); details: 10 µM
T18 construct: purchased DiscoverX (KINOMEscan)

[19] = target: T19, ABL1(Q252H)-phosphorylated (Homo sapiens, UniProt P00519, Q252H); details: 10 µM
T19 construct: purchased DiscoverX (KINOMEscan)

[20] = target: T20, RIPK4 (Homo sapiens, UniProt P57078); details: 10 µM
T20 construct: purchased DiscoverX (KINOMEscan)

[21] = target: T21, CSNK1A1 (Homo sapiens, UniProt P48729); details: 10 µM
T21 construct: purchased DiscoverX (KINOMEscan)

[22] = target: T22, FLT3(R834Q) (Homo sapiens, UniProt P36888, R834Q); details: 10 µM
T22 construct: purchased DiscoverX (KINOMEscan)

[23] = target: T23, MKNK1 (Homo sapiens, UniProt Q9BUB5); details: 10 µM
T23 construct: purchased DiscoverX (KINOMEscan)

[24] = target: T24, MEK1 (Homo sapiens, UniProt Q02750); details: 10 µM
T24 construct: purchased DiscoverX (KINOMEscan)

[25] = target: T25, AKT2 (Homo sapiens, UniProt P31751); details: 10 µM
T25 construct: purchased DiscoverX (KINOMEscan)

[26] = target: T26, RPS6KA4(Kin.Dom.2-C-terminal) (Homo sapiens, UniProt O75676); details: 10 µM
T26 construct: RPS6KA4(Kin.Dom.2-C-terminal); purchased DiscoverX (KINOMEscan)

[27] = target: T27, PIM3 (Homo sapiens, UniProt Q86V86); details: 10 µM
T27 construct: purchased DiscoverX (KINOMEscan)

[28] = target: T28, KIT(L576P) (Homo sapiens, UniProt P10721, L576P); details: 10 µM
T28 construct: purchased DiscoverX (KINOMEscan)

T8 sequence (P29597 556-888 limits assumed): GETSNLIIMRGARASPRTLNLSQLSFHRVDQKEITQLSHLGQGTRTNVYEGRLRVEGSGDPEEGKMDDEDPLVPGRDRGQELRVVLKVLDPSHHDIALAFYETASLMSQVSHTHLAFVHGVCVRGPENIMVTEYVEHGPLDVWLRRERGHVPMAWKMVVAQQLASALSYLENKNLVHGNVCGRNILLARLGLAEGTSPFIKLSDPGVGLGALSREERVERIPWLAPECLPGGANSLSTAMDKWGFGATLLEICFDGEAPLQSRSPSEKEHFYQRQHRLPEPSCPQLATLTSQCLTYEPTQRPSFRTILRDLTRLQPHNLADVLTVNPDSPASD
T14 sequence (P54756 25-1037): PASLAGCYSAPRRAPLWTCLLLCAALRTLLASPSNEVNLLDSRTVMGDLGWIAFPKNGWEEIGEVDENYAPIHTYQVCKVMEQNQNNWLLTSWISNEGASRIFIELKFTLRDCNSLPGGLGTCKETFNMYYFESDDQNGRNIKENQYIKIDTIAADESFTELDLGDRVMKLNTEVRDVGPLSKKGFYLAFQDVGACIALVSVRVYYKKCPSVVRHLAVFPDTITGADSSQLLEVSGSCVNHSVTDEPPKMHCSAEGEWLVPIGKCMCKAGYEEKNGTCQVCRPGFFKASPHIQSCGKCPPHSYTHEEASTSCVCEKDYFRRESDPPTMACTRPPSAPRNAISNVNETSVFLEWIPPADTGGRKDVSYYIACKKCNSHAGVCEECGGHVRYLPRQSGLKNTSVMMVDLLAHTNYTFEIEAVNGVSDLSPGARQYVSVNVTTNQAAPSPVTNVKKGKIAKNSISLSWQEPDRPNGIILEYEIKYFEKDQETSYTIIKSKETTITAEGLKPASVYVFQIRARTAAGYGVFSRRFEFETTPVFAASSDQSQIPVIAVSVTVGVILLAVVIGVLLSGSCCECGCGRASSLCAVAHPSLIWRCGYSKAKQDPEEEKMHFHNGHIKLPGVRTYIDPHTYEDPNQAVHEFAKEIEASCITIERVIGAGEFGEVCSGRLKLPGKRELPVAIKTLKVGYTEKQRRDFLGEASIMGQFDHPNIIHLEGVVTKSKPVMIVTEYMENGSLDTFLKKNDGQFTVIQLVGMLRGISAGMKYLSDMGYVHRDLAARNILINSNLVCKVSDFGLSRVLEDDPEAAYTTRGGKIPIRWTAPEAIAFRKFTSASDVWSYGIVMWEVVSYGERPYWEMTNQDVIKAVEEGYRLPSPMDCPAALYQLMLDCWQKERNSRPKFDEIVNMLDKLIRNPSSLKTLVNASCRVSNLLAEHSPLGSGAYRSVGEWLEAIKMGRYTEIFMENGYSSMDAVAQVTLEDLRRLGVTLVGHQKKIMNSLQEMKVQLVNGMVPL
T7 sequence (P12931 whole entry): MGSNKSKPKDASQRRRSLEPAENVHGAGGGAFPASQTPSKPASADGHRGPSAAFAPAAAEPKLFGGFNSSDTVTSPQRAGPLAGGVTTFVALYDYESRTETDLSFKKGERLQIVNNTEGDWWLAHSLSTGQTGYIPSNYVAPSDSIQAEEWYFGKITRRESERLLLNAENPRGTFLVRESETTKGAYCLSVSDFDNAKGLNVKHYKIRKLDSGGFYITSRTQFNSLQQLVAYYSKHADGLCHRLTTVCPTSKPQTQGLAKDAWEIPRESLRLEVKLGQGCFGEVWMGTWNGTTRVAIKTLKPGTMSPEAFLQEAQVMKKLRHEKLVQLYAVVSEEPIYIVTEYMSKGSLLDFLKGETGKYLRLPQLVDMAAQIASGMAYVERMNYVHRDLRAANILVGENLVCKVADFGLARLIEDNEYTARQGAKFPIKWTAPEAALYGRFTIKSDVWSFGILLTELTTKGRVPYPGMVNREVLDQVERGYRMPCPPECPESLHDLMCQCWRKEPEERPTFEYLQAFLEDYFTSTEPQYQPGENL
T18 sequence (Q13873 27-1038): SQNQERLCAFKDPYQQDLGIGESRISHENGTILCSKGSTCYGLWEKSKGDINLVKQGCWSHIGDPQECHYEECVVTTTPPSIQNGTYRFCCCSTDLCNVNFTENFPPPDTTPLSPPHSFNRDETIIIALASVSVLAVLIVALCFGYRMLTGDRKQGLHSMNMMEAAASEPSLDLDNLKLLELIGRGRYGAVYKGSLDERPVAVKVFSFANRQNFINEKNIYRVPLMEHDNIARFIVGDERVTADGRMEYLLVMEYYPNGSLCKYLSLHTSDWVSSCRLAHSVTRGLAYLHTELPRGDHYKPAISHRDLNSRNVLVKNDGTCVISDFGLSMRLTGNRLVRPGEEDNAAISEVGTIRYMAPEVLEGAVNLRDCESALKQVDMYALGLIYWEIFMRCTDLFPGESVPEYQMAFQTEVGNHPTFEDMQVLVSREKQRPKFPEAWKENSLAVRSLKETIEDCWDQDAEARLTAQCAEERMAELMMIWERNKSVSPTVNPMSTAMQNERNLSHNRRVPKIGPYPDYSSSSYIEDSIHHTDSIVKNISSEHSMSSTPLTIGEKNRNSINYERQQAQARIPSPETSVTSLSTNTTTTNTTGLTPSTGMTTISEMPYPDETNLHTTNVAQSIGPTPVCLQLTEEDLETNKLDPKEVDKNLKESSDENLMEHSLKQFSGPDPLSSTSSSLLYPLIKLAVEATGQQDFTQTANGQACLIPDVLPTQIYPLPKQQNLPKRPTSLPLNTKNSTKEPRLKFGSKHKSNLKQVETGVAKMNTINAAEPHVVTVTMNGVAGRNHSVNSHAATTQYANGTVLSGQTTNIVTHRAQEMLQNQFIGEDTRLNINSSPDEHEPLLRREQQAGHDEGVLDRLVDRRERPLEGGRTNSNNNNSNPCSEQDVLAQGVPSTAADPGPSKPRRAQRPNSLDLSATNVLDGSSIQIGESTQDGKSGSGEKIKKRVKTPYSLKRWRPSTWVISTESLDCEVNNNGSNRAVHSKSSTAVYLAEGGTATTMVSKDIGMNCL
T1 sequence (P49760 whole entry): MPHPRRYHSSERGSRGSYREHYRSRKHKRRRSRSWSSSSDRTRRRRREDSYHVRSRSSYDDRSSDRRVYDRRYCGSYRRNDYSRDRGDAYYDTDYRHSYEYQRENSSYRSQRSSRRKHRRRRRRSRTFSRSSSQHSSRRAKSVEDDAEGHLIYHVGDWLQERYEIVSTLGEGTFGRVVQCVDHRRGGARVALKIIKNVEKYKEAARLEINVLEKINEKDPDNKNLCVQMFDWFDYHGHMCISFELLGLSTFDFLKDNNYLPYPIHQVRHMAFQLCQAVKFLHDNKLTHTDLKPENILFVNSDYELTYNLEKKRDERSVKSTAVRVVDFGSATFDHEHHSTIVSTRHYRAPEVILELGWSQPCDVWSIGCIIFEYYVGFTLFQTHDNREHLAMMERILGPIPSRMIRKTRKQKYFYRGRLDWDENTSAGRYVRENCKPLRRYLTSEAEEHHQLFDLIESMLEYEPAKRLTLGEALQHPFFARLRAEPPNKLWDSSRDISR
T10 sequence (Q96RR4 whole entry): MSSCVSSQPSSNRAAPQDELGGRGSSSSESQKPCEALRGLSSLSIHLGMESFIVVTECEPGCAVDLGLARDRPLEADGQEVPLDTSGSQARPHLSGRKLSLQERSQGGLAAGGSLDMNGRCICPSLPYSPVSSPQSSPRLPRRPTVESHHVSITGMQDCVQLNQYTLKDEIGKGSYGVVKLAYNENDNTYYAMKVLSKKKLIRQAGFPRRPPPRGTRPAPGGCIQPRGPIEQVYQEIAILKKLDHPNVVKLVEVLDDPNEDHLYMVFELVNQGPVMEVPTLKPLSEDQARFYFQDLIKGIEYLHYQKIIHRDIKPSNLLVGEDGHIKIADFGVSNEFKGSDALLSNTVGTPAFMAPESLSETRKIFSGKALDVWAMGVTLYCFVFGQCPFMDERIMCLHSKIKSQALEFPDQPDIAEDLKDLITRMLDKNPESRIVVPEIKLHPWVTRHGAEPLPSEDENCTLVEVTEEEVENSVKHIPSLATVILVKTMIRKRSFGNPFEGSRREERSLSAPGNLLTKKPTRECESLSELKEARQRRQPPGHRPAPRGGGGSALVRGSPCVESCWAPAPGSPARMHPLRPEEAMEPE
T25 sequence (P31751 whole entry): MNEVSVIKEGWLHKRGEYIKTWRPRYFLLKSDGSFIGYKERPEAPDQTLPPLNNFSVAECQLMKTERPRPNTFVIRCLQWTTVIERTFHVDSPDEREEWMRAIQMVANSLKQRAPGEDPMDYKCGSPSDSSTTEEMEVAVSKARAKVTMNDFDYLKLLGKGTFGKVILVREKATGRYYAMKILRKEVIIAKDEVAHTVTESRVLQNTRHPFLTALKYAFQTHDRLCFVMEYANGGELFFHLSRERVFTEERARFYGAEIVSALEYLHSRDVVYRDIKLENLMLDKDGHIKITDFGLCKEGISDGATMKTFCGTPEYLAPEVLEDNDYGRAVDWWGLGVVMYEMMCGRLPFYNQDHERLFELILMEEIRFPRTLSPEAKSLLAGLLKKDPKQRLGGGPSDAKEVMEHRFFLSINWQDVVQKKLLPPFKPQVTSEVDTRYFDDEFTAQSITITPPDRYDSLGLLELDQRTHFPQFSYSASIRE
T4 sequence (P51955 whole entry): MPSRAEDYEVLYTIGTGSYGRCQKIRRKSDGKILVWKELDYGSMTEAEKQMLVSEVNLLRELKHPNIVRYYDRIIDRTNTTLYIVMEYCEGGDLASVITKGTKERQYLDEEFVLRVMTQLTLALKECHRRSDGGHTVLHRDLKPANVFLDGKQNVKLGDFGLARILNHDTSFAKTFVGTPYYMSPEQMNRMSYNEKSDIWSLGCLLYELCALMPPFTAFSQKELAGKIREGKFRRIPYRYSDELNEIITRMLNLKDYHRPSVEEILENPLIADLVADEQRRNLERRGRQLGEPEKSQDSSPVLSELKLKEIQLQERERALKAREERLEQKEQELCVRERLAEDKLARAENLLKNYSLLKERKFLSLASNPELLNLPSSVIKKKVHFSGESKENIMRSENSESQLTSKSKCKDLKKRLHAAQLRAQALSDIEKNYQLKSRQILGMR

With `Nc1ccc(N=Nc2ccccc2)c(N)n1` [phenazopyridine, 2,6-diamino-3-(phenylazo)pyridine] the kinase inhibition [1] was 75, the kinase inhibition [2] was 50 and the “remaining binding (% of control)” value ([3]; FLT3(K663Q), 10 µM) was 21. The remaining binding at 10 µM ([3]; FLT3 as printed (Table S4: FLT3(K663Q)), read-out: % Of control) was 21%, the kinase inhibition [4] was 81 and the kinase inhibition [5] was 100. The kinase inhibition [6] was 100, the kinase inhibition [7] was 100 and the “remaining binding (% of control)” value ([8]; TYK2(JH2domain-pseudokinase), 10 µM) was 16. For the same compound, the remaining binding at 10 µM ([8]; TYK2 as printed (Table S4: JH2domain-pseudokinase), read-out: % Of control) was 16%, the kinase inhibition [9] was 90 and the kinase inhibition [10] was 99. The kinase inhibition [11] was 90, the kinase inhibition [12] was 62 and the kinase inhibition [13] was 100. It also gave a kinase inhibition [14] of 97, a kinase inhibition [15] of 83 and a kinase inhibition [16] of 100. The “remaining binding (% of control)” value [17] was 93, the kinase inhibition [18] was 97 and the kinase inhibition [19] was 100. For the same compound, the kinase inhibition [20] was 100, the kinase inhibition [21] was 85 and the “remaining binding (% of control)” value [22] was 89. It also gave a kinase inhibition [23] of 37, a kinase inhibition [24] of 99 and a kinase inhibition [25] of 100. It also gave a kinase inhibition [26] of 90, a kinase inhibition [27] of 100 and a kinase inhibition [28] of 44.
